Where a chain is given by its changes, count along the chain named. Several values for one entry are separate records, joined by “and”; a condition that tells them apart may be missing. Equal values may be shown once. Read-outs that look alike come from different tables or passages of the source.
Columns and labels:
E. coli WT DHFR = molecular target: T1, E. coli WT DHFR (Escherichia coli, UniProt P0ABQ4); test: biochemical; details: for Ki: Ki value, E. coli WT DHFR, Ki converted from IC50; for inhibition at 200 µM: read-out: inhibition of DHFR catalytic activity
T1 construct: made in house
T1 sequence (P0ABQ4 1-159): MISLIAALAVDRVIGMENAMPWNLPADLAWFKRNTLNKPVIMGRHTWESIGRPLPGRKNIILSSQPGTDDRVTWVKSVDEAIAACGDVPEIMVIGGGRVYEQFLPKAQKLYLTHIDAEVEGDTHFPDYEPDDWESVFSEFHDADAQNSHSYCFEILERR

E. coli DHFR P21L mutant = molecular target: T2, E. coli DHFR P21L mutant (Escherichia coli, UniProt P0ABQ4, P21L); test: biochemical; details: for Ki: Ki value, E. coli P21L DHFR, Ki converted from IC50; for inhibition at 200 µM: read-out: inhibition of DHFR catalytic activity
T2 construct: made in house
T2 sequence (P0ABQ4 1-159 P21L): T1 sequence (P0ABQ4 1-159) with P21L

E. coli DHFR A26T mutant = molecular target: T3, E. coli DHFR A26T mutant (Escherichia coli, UniProt P0ABQ4, A26T); test: biochemical; details: for Ki: Ki value, E. coli A26T DHFR, Ki converted from IC50; for inhibition at 200 µM: read-out: inhibition of DHFR catalytic activity
T3 construct: made in house
T3 sequence (P0ABQ4 1-159 A26T): T1 sequence (P0ABQ4 1-159) with A26T

E. coli DHFR L28R mutant = molecular target: T4, E. coli DHFR L28R mutant (Escherichia coli, UniProt P0ABQ4, L28R); test: biochemical; details: for Ki: Ki value, E. coli L28R DHFR, Ki converted from IC50; for inhibition at 200 µM: read-out: inhibition of DHFR catalytic activity
T4 construct: made in house
T4 sequence (P0ABQ4 1-159 L28R): T1 sequence (P0ABQ4 1-159) with L28R

[1] = test system: E. coli strain with chromosomal P21L DHFR; test: microbe, parasite or virus in culture; assay type: cell-based; details: Escherichia coli, read-out: Bacterial growth inhibition IC50
[2] = test system: E. coli strain with chromosomal A26T DHFR; test: microbe, parasite or virus in culture; assay type: cell-based; details: Escherichia coli, read-out: Bacterial growth inhibition IC50
[3] = test system: E. coli strain with chromosomal L28R DHFR; test: microbe, parasite or virus in culture; assay type: cell-based; details: for IC50: Escherichia coli, read-out: Bacterial growth inhibition IC50
WT E. coli strain [4] = test: microbe, parasite or virus in culture; details: Escherichia coli
Human DHFR = molecular target: T5, Human DHFR (Homo sapiens, UniProt P00374); test: biochemical; assay type: biochemical; details: for Ki: Human WT DHFR, NT means no inhibition was detected at the maximal compound concentration tested
T5 construct: purchased Sigma Aldrich

[5] = test system: CD15-3-evolved E. coli strains; test: microbe, parasite or virus in culture; assay type: cell-based; details: Escherichia coli
E. coli BW27783 = assay type: cell-based
WT E. coli strain [6] = details: read-out: Bacterial growth inhibition IC50; WT (naive) E. coli strain, M9 medium, 37°C
[7] = test system: WT and evolved E. coli cells; test: DIC imaging of cell length; details: 42°C
[8] = molecular target: T6, E. coli DHFR P21L-A26T mutant (Escherichia coli, UniProt P0ABQ4, A26T/P21L); test: biochemical
T6 construct: made in house
T6 sequence (P0ABQ4 1-159 P21L/A26T): T1 sequence (P0ABQ4 1-159) with P21L, A26T

[9] = molecular target: T7, E. coli DHFR P21L-L28R mutant (Escherichia coli, UniProt P0ABQ4, L28R/P21L); test: biochemical
T7 construct: made in house
T7 sequence (P0ABQ4 1-159 P21L/L28R): T1 sequence (P0ABQ4 1-159) with P21L, L28R

[10] = molecular target: T8, E. coli DHFR A26T-L28R mutant (Escherichia coli, UniProt P0ABQ4, A26T/L28R); test: biochemical
T8 construct: made in house
T8 sequence (P0ABQ4 1-159 A26T/L28R): T1 sequence (P0ABQ4 1-159) with A26T, L28R

[11] = single fixed concentration of 200 µM, WT DHFR
[12] = single fixed concentration of 200 µM, P21L DHFR
[13] = single fixed concentration of 200 µM, A26T DHFR
[14] = single fixed concentration of 200 µM, L28R DHFR
[15] = read-out: Bacterial growth inhibition IC50, WT (naive) E. coli strain, M9 medium, 37°C

| Compound | Ki (E. coli WT DHFR) | Ki (E. coli DHFR P21L mutant) | Ki (E. coli DHFR A26T mutant) | Ki (E. coli DHFR L28R mutant) | IC50 [1] | IC50 [2] | IC50 [3] | IC50 (WT E. coli strain [4]; [15]) | other results |
| --- | --- | --- | --- | --- | --- | --- | --- | --- | --- |
| COc1cc([C@H]2CC(=O)Nc3nc(N)[nH]c(=O)c32)ccc1O [CD08] | 6.9 ± 0.6 µM | 3.2 ± 0.4 µM | 4.9 ± 1.4 µM | 3.1 ± 0.6 µM |  |  |  |  | inhibition at 200 µM (E. coli WT DHFR; [11]): > 30%; inhibition at 200 µM (E. coli DHFR P21L mutant; [12]): > 30%; inhibition at 200 µM (E. coli DHFR A26T mutant; [13]): > 30%; inhibition at 200 µM (E. coli DHFR L28R mutant; [14]): > 30% |
| COc1ccc([C@@H]2CC(c3c(O)[nH]c(=O)n(C)c3=O)=NN2)cc1O [CD15-2] |  |  |  |  | 125 µM | 119 µM | 88 µM | 129 µM |  |
| Cn1c(=O)[nH]c(O)c(C2=NN[C@H](c3cccc4ccccc34)C2)c1=O [CD15-3] | 5.52 µM | 2.51 µM | 3.48 µM | 0.98 µM | 57 µM | 73 µM | 48 µM | 71.8 µM | inhibitory activity against human DHFR (Human DHFR; CD15-3 17.56–200 µM, 25°C): no inhibitory activity; efficacy relative to TMP on L28R E. coli variant strain ([3]; growth inhibition IC50, better than TMP): about 2.4 fold; IC50 ([5]; CD15-3-evolved strain Evolved 1, M9 media): 132 µM; IC50 ([5]; CD15-3-evolved strain Evolved 2, M9 media): 166 µM; IC50 ([5]; CD15-3-evolved strain Evolved 3, M9 media): 170 µM; IC50 ([5]; range over strains evolved under CD15-3, read-out: IC50 of evolved strains): 132 to 170 µM; effect of folA mix supplement on drug-induced growth inhibition (E. coli BW27783; M9 media with folA mix): partially rescued; effect of inactive D27F DHFR overexpression on drug-induced growth inhibition (E. coli BW27783; pBAD D27F, 0.005% arabinose): no growth recovery; effect of WT DHFR overexpression on drug-induced growth inhibition (E. coli BW27783; pBAD folA, 0.005% arabinose): partially rescued growth; IC50 (WT E. coli strain [6]): 72 µM; median cell length ([7]; WT cells treated at IC50 concentration, 4 hours): 2.34 µm; median cell length ([7]; evolved cells treated at IC50 concentration): 1.26 µm; IC50 (WT E. coli strain [4]; read-out: IC50 against WT and TMP-resistant strains): 50 to 75 µM |
| Cn1c(=O)[nH]c(O)c(C2=NN[C@H](c3ccc4c(c3)OCO4)C2)c1=O [CD15-4] |  |  |  |  | 92 µM | 123 µM | 67 µM | 302 µM |  |
| COc1cc([C@@H]2CC(c3c(O)[nH]c(=O)n(C)c3=O)=NN2)cc(OC)c1OC [CD15-6] |  |  |  |  | 159 µM | 172 µM | 167 µM | 175 µM |  |
| COc1ccc([C@@H]2CC(c3c(O)[nH]c(=O)n(C)c3=O)=NN2)cc1OC [CD15] | 3.35 µM | 1.42 µM | 2.43 µM | 1.04 µM | 176 µM | 197 µM | 159 µM | 170 µM | inhibition at 200 µM (E. coli WT DHFR; [11]): > 30%; inhibition at 200 µM (E. coli DHFR P21L mutant; [12]): > 30%; inhibition at 200 µM (E. coli DHFR A26T mutant; [13]): > 30%; inhibition at 200 µM (E. coli DHFR L28R mutant; [14]): > 30%; Ki [8]: 3.26 µM; Ki [9]: 0.56 µM; Ki [10]: 0.61 µM; Ki (Human DHFR): 0.38 µM |
| C[C@H](Oc1ccc(C=C2C(=O)NC(=O)NC2=O)cc1)C(=O)O [CD17-3] |  |  |  |  | 2840 µM | 2150 µM | 907 µM | 2950 µM |  |
| O=C(O)COc1c(Cl)cc(C=C2C(=O)NC(=O)NC2=O)cc1Cl [CD17-4] |  |  |  |  |  |  | 1860 µM |  |  |
| CCOc1cc(C=C2C(=O)NC(=O)NC2=O)ccc1OCC(=O)O [CD17] | 8.2 µM and 8.18 µM | 3.7 µM | 6.7 µM and 6.73 µM | 3.7 µM and 3.65 µM | 5050 µM | 1920 µM | 932 µM | 1770 µM | inhibition at 200 µM (E. coli WT DHFR; [11]): > 30%; inhibition at 200 µM (E. coli DHFR P21L mutant; [12]): > 30%; inhibition at 200 µM (E. coli DHFR A26T mutant; [13]): > 30%; inhibition at 200 µM (E. coli DHFR L28R mutant; [14]): > 30%; Ki [8]: 9.2 µM; Ki [9]: 1.37 µM; Ki [10]: 2.04 µM; Ki (Human DHFR): 0.74 µM |
| CSc1nc2nc(N)nc(N)c2s1 [CD20] |  |  |  |  |  |  |  |  | inhibition of DHFR catalytic activity (E. coli WT DHFR; [11]): showed inhibition; inhibition of DHFR catalytic activity (E. coli DHFR P21L mutant; [12]): showed inhibition; inhibition of DHFR catalytic activity (E. coli DHFR A26T mutant; [13]): showed inhibition; inhibition of DHFR catalytic activity (E. coli DHFR L28R mutant; [14]): not |
| Cc1cc(NS(=O)(=O)c2ccc(N)cc2)no1 [Sulfamethoxazole, reference compound] |  |  |  |  |  |  |  |  | IC50 ([5]; CD15-3-evolved cells, cross resistance test, growth rate): 6.7 µM; IC50 (WT E. coli strain [4]): 2.9 µM |
| COc1cc(Cc2cnc(N)nc2N)cc(OC)c1OC [TMP, trimethoprim, reference compound] |  |  |  |  |  |  |  |  | IC50 (WT E. coli strain [4]): 0.4 µg/mL; IC50 (WT E. coli strain [4]; read-out: Bacterial growth inhibition IC50): 1.3 µM |

Source: paper PMC8331180, “Development of antibacterial compounds that constrain evolutionary pathways to resistance” (eLife, 2021)
